Data from patent US20260266848A1, “COMPOSITIONS AND METHODS FOR DIAGNOSING AND TREATING DYSTONIA” (Duke University, priority 2023, published 2026).
Several values for one entry are separate records, joined by “and”; a condition that tells them apart may be missing. Equal values may be shown once.

System: DYT-TOR1A MEF EVs
Assay: Quantitative LC-MS/MS proteomics of EVs from drug-treated DYT-TOR1A MEF cultures (ritonavir, salubrinal)
Type: cell-based, mouse
Conditions: 24 h

CC(C)c1nc(CN(C)C(=O)N[C@H](C(=O)N[C@@H](Cc2ccccc2)C[C@H](O)[C@H](Cc2ccccc2)NC(=O)OCc2cncs2)C(C)C)cs1 [ritonavir]
DYT-TOR1A genotype-disrupted EV proteins (n=363) with significant changes in abundance following ritonavir treatment (20 μM ritonavir, p≤0.05): > 60% and 63%
DYT-TOR1A genotype-dependent protein disruptions changed by ritonavir in the corrective direction (20 μM): 95%
putative DYT biomarkers with ritonavir effects on protein abundance in the corrective direction (20 μM, independent of p-value, of 363 proteins): 344/363
DYT EV proteome significantly modified by ritonavir (20 μM, uncorrected p<0.05, 1974 proteins): 29%
Acaa1a (ACAA1) EV abundance Log2_FC (DYT1+RTV/DYT1, 20 μM): 0.8675
Ano6 (ANO6) EV abundance Log2_FC (DYT1+RTV/DYT1, 20 μM): 0.08584
Ap1b1 (AP1B1) EV abundance Log2_FC (DYT1+RTV/DYT1, 20 μM): 1.328
Arl8b (ARL8B) EV abundance Log2_FC (DYT1+RTV/DYT1, 20 μM): 0.4007
Bzw2 (BZW2) EV abundance Log2_FC (DYT1+RTV/DYT1, 20 μM): 0.8082
Cryab (CRYAB) EV abundance Log2_FC (DYT1+RTV/DYT1, 20 μM): 0.42
DIst (DLST) EV abundance Log2_FC (DYT1+RTV/DYT1, 20 μM): −0.4459
Ehd4 (EHD4) EV abundance Log2_FC (DYT1+RTV/DYT1, 20 μM): 0.07182
Flna (FLNA) EV abundance Log2_FC (DYT1+RTV/DYT1, 20 μM): 0.3721
Fscn1 (FSCN1) EV abundance Log2_FC (DYT1+RTV/DYT1, 20 μM): 0.402
Gart (GART) EV abundance Log2_FC (DYT1+RTV/DYT1, 20 μM): 0.677
Hist1h1b (H1-5) EV abundance Log2_FC (DYT1+RTV/DYT1, 20 μM): 0.9834
Hnrnpc (HNRNPC) EV abundance Log2_FC (DYT1+RTV/DYT1, 20 μM): −0.1273
Ipo9 (IPO9) EV abundance Log2_FC (DYT1+RTV/DYT1, 20 μM): 1.122
Jam3 (JAM3) EV abundance Log2_FC (DYT1+RTV/DYT1, 20 μM): −1.301
Lipg (LIPG) EV abundance Log2_FC (DYT1+RTV/DYT1, 20 μM): 1.299
Lrrc59 (LRRC59) EV abundance Log2_FC (DYT1+RTV/DYT1, 20 μM): 0.1624
Mapk3 (MAPK3) EV abundance Log2_FC (DYT1+RTV/DYT1, 20 μM): 1.986
Mars (MARS1) EV abundance Log2_FC (DYT1+RTV/DYT1, 20 μM): 0.5148
Mrc2 (MRC2) EV abundance Log2_FC (DYT1+RTV/DYT1, 20 μM): −0.09834
Myh9 (MYH9) EV abundance Log2_FC (DYT1+RTV/DYT1, 20 μM): −0.00905
Ndnf (NDNF) EV abundance Log2_FC (DYT1+RTV/DYT1, 20 μM): 0.4697
Pcmt1 (PCMT1) EV abundance Log2_FC (DYT1+RTV/DYT1, 20 μM): 2.547
Pi4ka (PI4KA) EV abundance Log2_FC (DYT1+RTV/DYT1, 20 μM): −0.3588
Pitpnb (PITPNB) EV abundance Log2_FC (DYT1+RTV/DYT1, 20 μM): 0.7296
Prpsap2 (PRPSAP2) EV abundance Log2_FC (DYT1+RTV/DYT1, 20 μM): −0.08407
Psmc5 (PSMC5) EV abundance Log2_FC (DYT1+RTV/DYT1, 20 μM): 0.4559
Psmd12 (PSMD12) EV abundance Log2_FC (DYT1+RTV/DYT1, 20 μM): 1.09
Psme4 (PSME4) EV abundance Log2_FC (DYT1+RTV/DYT1, 20 μM): 1.371
Ptma (PTMA) EV abundance Log2_FC (DYT1+RTV/DYT1, 20 μM): −0.8532
Rap2b (RAP2B) EV abundance Log2_FC (DYT1+RTV/DYT1, 20 μM): 0.3342
Rbm3 (RBM3) EV abundance Log2_FC (DYT1+RTV/DYT1, 20 μM): −0.1048
Rhoa (RHOA) EV abundance Log2_FC (DYT1+RTV/DYT1, 20 μM): 0.1985
Rpl10 (RPL10) EV abundance Log2_FC (DYT1+RTV/DYT1, 20 μM): 0.5214
Rpl13a (RPL13A) EV abundance Log2_FC (DYT1+RTV/DYT1, 20 μM): 0.6732
Rps13 (RPS13) EV abundance Log2_FC (DYT1+RTV/DYT1, 20 μM): 0.02007
Sec31a (SEC31A) EV abundance Log2_FC (DYT1+RTV/DYT1, 20 μM): 0.8357
Slc2a1 (SLC2A1) EV abundance Log2_FC (DYT1+RTV/DYT1, 20 μM): −0.03153
Stom (STOM) EV abundance Log2_FC (DYT1+RTV/DYT1, 20 μM): 0.1986
Tardbp (TARDBP) EV abundance Log2_FC (DYT1+RTV/DYT1, 20 μM): 0.2272
Tgfb2 (TGFB2) EV abundance Log2_FC (DYT1+RTV/DYT1, 20 μM): −0.7218
Tln1 (TLN1) EV abundance Log2_FC (DYT1+RTV/DYT1, 20 μM): 0.1451
Tln2 (TLN2) EV abundance Log2_FC (DYT1+RTV/DYT1, 20 μM): 0.6441
Tubb1 (TUBB1) EV abundance Log2_FC (DYT1+RTV/DYT1, 20 μM): −0.05972
Usp7 (USP7) EV abundance Log2_FC (DYT1+RTV/DYT1, 20 μM): 1.189
Wdr26 (WDR26) EV abundance Log2_FC (DYT1+RTV/DYT1, 20 μM): 1.2
Zyx (ZYX) EV abundance Log2_FC (DYT1+RTV/DYT1, 20 μM): −0.3666
Acaa1a (ACAA1) EV abundance Cohen's d (DYT + RTV/DYT, 20 μM): 1.381
Ano6 (ANO6) EV abundance Cohen's d (DYT + RTV/DYT, 20 μM): 0.2001
Ap1b1 (AP1B1) EV abundance Cohen's d (DYT + RTV/DYT, 20 μM): 3.258
Arl8b (ARL8B) EV abundance Cohen's d (DYT + RTV/DYT, 20 μM): 0.9032
Bzw2 (BZW2) EV abundance Cohen's d (DYT + RTV/DYT, 20 μM): 1.685
Cryab (CRYAB) EV abundance Cohen's d (DYT + RTV/DYT, 20 μM): 0.7088
DIst (DLST) EV abundance Cohen's d (DYT + RTV/DYT, 20 μM): −1.437
Ehd4 (EHD4) EV abundance Cohen's d (DYT + RTV/DYT, 20 μM): 0.2557
Flna (FLNA) EV abundance Cohen's d (DYT + RTV/DYT, 20 μM): 1.357
Fscn1 (FSCN1) EV abundance Cohen's d (DYT + RTV/DYT, 20 μM): 2.995
Gart (GART) EV abundance Cohen's d (DYT + RTV/DYT, 20 μM): 2.137
Hist1h1b (H1-5) EV abundance Cohen's d (DYT + RTV/DYT, 20 μM): 1.182
Hnrnpc (HNRNPC) EV abundance Cohen's d (DYT + RTV/DYT, 20 μM): −0.2031
Ipo9 (IPO9) EV abundance Cohen's d (DYT + RTV/DYT, 20 μM): 4.135
Jam3 (JAM3) EV abundance Cohen's d (DYT + RTV/DYT, 20 μM): −2.624
Lipg (LIPG) EV abundance Cohen's d (DYT + RTV/DYT, 20 μM): 2.834
Lrrc59 (LRRC59) EV abundance Cohen's d (DYT + RTV/DYT, 20 μM): 0.8879
Mapk3 (MAPK3) EV abundance Cohen's d (DYT + RTV/DYT, 20 μM): 2.384
Mars (MARS1) EV abundance Cohen's d (DYT + RTV/DYT, 20 μM): 2.211
Mrc2 (MRC2) EV abundance Cohen's d (DYT + RTV/DYT, 20 μM): −0.4039
Myh9 (MYH9) EV abundance Cohen's d (DYT + RTV/DYT, 20 μM): −0.03876
Ndnf (NDNF) EV abundance Cohen's d (DYT + RTV/DYT, 20 μM): 0.353
Pcmt1 (PCMT1) EV abundance Cohen's d (DYT + RTV/DYT, 20 μM): 5.975
Pi4ka (PI4KA) EV abundance Cohen's d (DYT + RTV/DYT, 20 μM): −0.6453
Pitpnb (PITPNB) EV abundance Cohen's d (DYT + RTV/DYT, 20 μM): 2.824
Prpsap2 (PRPSAP2) EV abundance Cohen's d (DYT + RTV/DYT, 20 μM): −0.1421
Psmc5 (PSMC5) EV abundance Cohen's d (DYT + RTV/DYT, 20 μM): 2.883
Psmd12 (PSMD12) EV abundance Cohen's d (DYT + RTV/DYT, 20 μM): 10.6
Psme4 (PSME4) EV abundance Cohen's d (DYT + RTV/DYT, 20 μM): 3.22
Ptma (PTMA) EV abundance Cohen's d (DYT + RTV/DYT, 20 μM): −2.366
Rap2b (RAP2B) EV abundance Cohen's d (DYT + RTV/DYT, 20 μM): 0.7129
Rbm3 (RBM3) EV abundance Cohen's d (DYT + RTV/DYT, 20 μM): −0.4328
Rhoa (RHOA) EV abundance Cohen's d (DYT + RTV/DYT, 20 μM): 0.3039
Rpl10 (RPL10) EV abundance Cohen's d (DYT + RTV/DYT, 20 μM): 0.7944
Rpl13a (RPL13A) EV abundance Cohen's d (DYT + RTV/DYT, 20 μM): 0.9222
Rps13 (RPS13) EV abundance Cohen's d (DYT + RTV/DYT, 20 μM): 0.06202
Sec31a (SEC31A) EV abundance Cohen's d (DYT + RTV/DYT, 20 μM): 4.402
Slc2a1 (SLC2A1) EV abundance Cohen's d (DYT + RTV/DYT, 20 μM): −0.04516
Stom (STOM) EV abundance Cohen's d (DYT + RTV/DYT, 20 μM): 0.4181
Tardbp (TARDBP) EV abundance Cohen's d (DYT + RTV/DYT, 20 μM): 0.6116
Tgfb2 (TGFB2) EV abundance Cohen's d (DYT + RTV/DYT, 20 μM): −1.388
Tln1 (TLN1) EV abundance Cohen's d (DYT + RTV/DYT, 20 μM): 1.026
Tln2 (TLN2) EV abundance Cohen's d (DYT + RTV/DYT, 20 μM): 1.031
Tubb1 (TUBB1) EV abundance Cohen's d (DYT + RTV/DYT, 20 μM): −0.1131
Usp7 (USP7) EV abundance Cohen's d (DYT + RTV/DYT, 20 μM): 7.143
Wdr26 (WDR26) EV abundance Cohen's d (DYT + RTV/DYT, 20 μM): 3.714
Zyx (ZYX) EV abundance Cohen's d (DYT + RTV/DYT, 20 μM): −0.7038
Pearson r between ritonavir and salubrinal effects on putative DYT-TOR1A biomarker proteins (DYT-TOR1A MEF EVs, 20 μM each): 0.47
